Test results: US20250195536A1, “BICYCLOOCTANE KRAS INHIBITORS” (Incyte Corporation, priority 2023, published 2025)

How the values were obtained:
[1] = Caco2 assay (permeability, Papp A-B); type: in vitro ADME; conditions: human, Caco-2, absorptive direction (A-B), 50 μM test compound, 4% BSA in receiver
Method: Caco-2 cells are grown at 37° C. in an atmosphere of 5% CO2 in DMEM growth medium supplemented with 10% (v/v) fetal bovine serum, 1% (v/v) nonessential amino acids, penicillin (100 U/mL), and streptomycin (100 μg/mL). Confluent cell monolayers are subcultured every 7 days or 4 days for Caco-2 by treatment with 0.05% trypsin containing […]. Caco-2 cells are seeded in 96-well Transwell plates. The seeding density for Caco-2 cells is 14,000 cells/well. DMEM growth medium is replaced every other day after seeding. Cell monolayers are used for transport assays between 22 and 25 days for Caco-2 cells.
Cell culture medium is removed and replaced with HBSS. To measure the TEER, the HBSS is added into the donor compartment (apical side) and receiver compartment (basolateral side). The TEER is measured by using a REMS Autosampler to ensure the integrity of the cell monolayers. Caco-2 cell monolayers with TEER values 300 Ω·cm^2 are used for transport experiments. To determine the Papp in the absorptive direction (A-B), solution of test compound (50 μM) in HBSS is added to the donor compartment (apical side), while HBSS solution with 4% BSA is added to the receiver compartment (basolateral side). The apical volume was 0.075 mL, and the basolateral volume is 0.25 mL. The incubation period is 120 min. at 37° C. in an atmosphere of 5% CO2. At the end of the incubation period, samples from the donor and receiver sides are removed and an equal volume of MeCN is added for protein precipitation. The supernatants are collected after centrifugation (3000 rpm, Allegra X-14R Centrifuge from Beckman Coulter, Indianapolis, IN) for LCMS analysis. The permeability value is determined according to the equation:
Papp(cm/s)=(F*VD)/(SA*MD),
where the flux rate (F, mass/time) is calc. from the slope of cumulative amounts of compound of interest on the receiver side, SA is the surface area of the cell membrane, VD is the donor volume, and MD is the initial amount of the solution in the donor chamber.
The symbol “+” indicates a Caco-2 value of ≤0.5, “++” indicates a Caco-2 value of >0.5 but ≤1; and “+++” indicates a Caco-2 value of >1. “NA” indicates Caco-2 value not available.

KRAS G12V = KRAS G12V (Homo sapiens, UniProt P01116, G12V); test: GDP-GTP exchange assay (KRAS G12V); type: biochemical; conditions: bodipy-GDP/GppNHp exchange with SOS1; 3 h incubation after GppNHp-SOS1;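 further: one dagger IC50 up to 100 nM and two daggers above 100 nM up to 1 μM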
Procedure, shortened: (§1)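 Bodipy-GDP-loaded KRAS (2.5 nM final) was pre-incubated 4 h at r.t. with inhibitor in Hepes pH 7.5 buffer with MgCl2, then exchange started with GppNHp (500 μM) and SOS1 (150 nM) final. Fluorescence (ex 485/em 520 nm) read after 2 h for G12D, 3 h for G12V; IC50 from four-parameter logistic fit.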

KRAS G12D = KRAS G12D (Homo sapiens, UniProt P01116, G12D); test: GDP-GTP exchange assay (KRAS G12D); type: biochemical; conditions: bodipy-GDP/GppNHp exchange with SOS1; 4 h pre-incubation, 2 h reaction;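 further: one dagger IC50 up to 100 nM and two daggers above 100 nM up to 1 μM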
Procedure, shortened: as §1

Sequence of KRAS G12V (P01116 1-188 isoform P01116-2 G12V): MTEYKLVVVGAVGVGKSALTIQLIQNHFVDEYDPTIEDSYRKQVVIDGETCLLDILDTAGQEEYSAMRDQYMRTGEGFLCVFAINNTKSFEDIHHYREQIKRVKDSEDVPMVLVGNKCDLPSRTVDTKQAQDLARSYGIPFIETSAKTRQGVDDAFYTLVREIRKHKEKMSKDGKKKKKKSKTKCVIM
Sequence of KRAS G12D (P01116 1-188 isoform P01116-2 G12D): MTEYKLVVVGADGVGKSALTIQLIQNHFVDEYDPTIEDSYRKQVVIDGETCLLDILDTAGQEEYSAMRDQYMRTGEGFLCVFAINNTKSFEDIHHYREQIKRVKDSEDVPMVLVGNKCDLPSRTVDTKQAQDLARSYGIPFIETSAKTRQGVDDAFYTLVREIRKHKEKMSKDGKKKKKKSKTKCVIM

SMILES: Cc1nc2c(F)c(-c3cccc(Cl)c3Cl)c(CCC#N)cc2c2c1cc([C@H]1[C@H]3C[C@H](CN(c4cnn(C(F)F)c4)C3)N1C(=O)C1CC1)n2[C@H]1[C@H]2CN[C@@H]1C2 (atropisomer, axis not shown; (Ra)) [Example 8, 3-((Ra)-1-((1R,4R,5S)-2-azabicyclo[2.1.1]hexan-5-yl)-2-((1S,5R,7R)-6-(cyclopropanecarbonyl)-3-(1-(difluoromethyl)-1H-pyrazol-4-yl)-3,6-diazabicyclo[3.2.1]octan-7-yl)-7-(2,3-dichlorophenyl)-6-fluoro-4-methyl-1H-pyrrolo[3,2-c]quinolin-8-yl)propanenitrile]
- Papp A→B at 120 min, 50 μM [1]: ≤ 0.5 ×10⁻⁶ cm/s
- G12V_exchange (KRAS_G12V exchange assay IC50) (KRAS G12V): †
- G12D_exchange (KRAS_G12D exchange assay IC50) (KRAS G12D): †

SMILES: Cc1nc2c(F)c(-c3cccc(Cl)c3Cl)c(CCC#N)cc2c2c1cc([C@H]1[C@H]3C[C@H](CN(c4cccnc4)C3)N1C(=O)C1CC1)n2[C@H]1[C@H]2CN[C@@H]1C2 (atropisomer, axis not shown; (Ra)) [Example 9, 3-((Ra)-1-((1R,4R,5S)-2-azabicyclo[2.1.1]hexan-5-yl)-2-((1S,5R,7R)-6-(cyclopropanecarbonyl)-3-(pyridin-3-yl)-3,6-diazabicyclo[3.2.1]octan-7-yl)-7-(2,3-dichlorophenyl)-6-fluoro-4-methyl-1H-pyrrolo[3,2-c]quinolin-8-yl)propanenitrile]
- Papp A→B at 120 min, 50 μM [1]: ≤ 0.5 ×10⁻⁶ cm/s
- G12V_exchange (KRAS_G12V exchange assay IC50) (KRAS G12V): †
- G12D_exchange (KRAS_G12D exchange assay IC50) (KRAS G12D): †

SMILES: Cc1nc2c(F)c(-c3cccc(Cl)c3Cl)c(CCC#N)cc2c2c1cc([C@H]1[C@H]3C[C@H](CN(c4cccc(C(F)(F)F)c4)C3)N1C(=O)C1CC1)n2[C@H]1[C@H]2CN[C@@H]1C2 (atropisomer, axis not shown; (Ra)) [Example 10, 3-((Ra)-1-((1R,4R,5S)-2-azabicyclo[2.1.1]hexan-5-yl)-2-((1S,5R,7R)-6-(cyclopropanecarbonyl)-3-(3-(trifluoromethyl)phenyl)-3,6-diazabicyclo[3.2.1]octan-7-yl)-7-(2,3-dichlorophenyl)-6-fluoro-4-methyl-1H-pyrrolo[3,2-c]quinolin-8-yl)propanenitrile]
- Papp A→B at 120 min, 50 μM [1]: ≤ 0.5 ×10⁻⁶ cm/s
- G12V_exchange (KRAS_G12V exchange assay IC50) (KRAS G12V): †
- G12D_exchange (KRAS_G12D exchange assay IC50) (KRAS G12D): ††

SMILES: Cc1nc2c(F)c(-c3cccc(Cl)c3Cl)c(CCC#N)cc2c2c1cc([C@H]1[C@H]3C[C@H](CN(c4ccc(C(F)(F)F)cc4)C3)N1C(=O)C1CC1)n2[C@H]1[C@H]2CN[C@@H]1C2 (atropisomer, axis not shown; (Ra)) [Example 12, 3-((Ra)-1-((1R,4R,5S)-2-azabicyclo[2.1.1]hexan-5-yl)-2-((1S,5R,7R)-6-(cyclopropanecarbonyl)-3-(4-(trifluoromethyl)phenyl)-3,6-diazabicyclo[3.2.1]octan-7-yl)-7-(2,3-dichlorophenyl)-6-fluoro-4-methyl-1H-pyrrolo[3,2-c]quinolin-8-yl)propanenitrile]
- Papp A→B at 120 min, 50 μM [1]: ≤ 0.5 ×10⁻⁶ cm/s
- G12V_exchange (KRAS_G12V exchange assay IC50) (KRAS G12V): †
- G12D_exchange (KRAS_G12D exchange assay IC50) (KRAS G12D): ††

SMILES: Cc1nc2c(F)c(-c3cccc(Cl)c3Cl)c(CCC#N)cc2c2c1cc([C@H]1[C@H]3C[C@H](CN(c4cccc(F)c4)C3)N1C(=O)C1CC1)n2[C@H]1[C@H]2CN[C@@H]1C2 (atropisomer, axis not shown; (Ra)) [Example 13, 3-((Ra)-1-((1R,4R,5S)-2-azabicyclo[2.1.1]hexan-5-yl)-2-((1S,5R,7R)-6-(cyclopropanecarbonyl)-3-(3-fluorophenyl)-3,6-diazabicyclo[3.2.1]octan-7-yl)-7-(2,3-dichlorophenyl)-6-fluoro-4-methyl-1H-pyrrolo[3,2-c]quinolin-8-yl)propanenitrile]
- Papp A→B at 120 min, 50 μM [1]: ≤ 0.5 ×10⁻⁶ cm/s
- G12V_exchange (KRAS_G12V exchange assay IC50) (KRAS G12V): †
- G12D_exchange (KRAS_G12D exchange assay IC50) (KRAS G12D): †

SMILES: Cc1ccc(N2C[C@@H]3C[C@H](C2)N(C(=O)C2CC2)[C@H]3c2cc3c(C)nc4c(F)c(-c5cccc(Cl)c5Cl)c(CCC#N)cc4c3n2[C@H]2[C@H]3CN[C@@H]2C3)cn1 (atropisomer, axis not shown; (Ra)) [Example 14, 3-((Ra)-1-((1R,4R,5S)-2-azabicyclo[2.1.1]hexan-5-yl)-2-((1S,5R,7R)-6-(cyclopropanecarbonyl)-3-(6-methylpyridin-3-yl)-3,6-diazabicyclo[3.2.1]octan-7-yl)-7-(2,3-dichlorophenyl)-6-fluoro-4-methyl-1H-pyrrolo[3,2-c]quinolin-8-yl)propanenitrile]
- Papp A→B at 120 min, 50 μM [1]: ≤ 0.5 ×10⁻⁶ cm/s
- G12V_exchange (KRAS_G12V exchange assay IC50) (KRAS G12V): †
- G12D_exchange (KRAS_G12D exchange assay IC50) (KRAS G12D): †

SMILES: Cc1nc2c(F)c(-c3cccc(Cl)c3Cl)c(CCC#N)cc2c2c1cc([C@H]1[C@H]3C[C@H](CN(c4ccc(Cl)c(Cl)c4)C3)N1C(=O)C1CC1)n2[C@H]1[C@H]2CN[C@@H]1C2 (atropisomer, axis not shown; (Ra)) [Example 15, 3-((Ra)-1-((1R,4R,5S)-2-azabicyclo[2.1.1]hexan-5-yl)-2-((1S,5R,7R)-6-(cyclopropanecarbonyl)-3-(3,4-dichlorophenyl)-3,6-diazabicyclo[3.2.1]octan-7-yl)-7-(2,3-dichlorophenyl)-6-fluoro-4-methyl-1H-pyrrolo[3,2-c]quinolin-8-yl)propanenitrile]
- Papp A→B at 120 min, 50 μM [1]: ≤ 0.5 ×10⁻⁶ cm/s
- G12V_exchange (KRAS_G12V exchange assay IC50) (KRAS G12V): ††††
- G12D_exchange (KRAS_G12D exchange assay IC50) (KRAS G12D): †††

SMILES: Cc1nc2c(F)c(-c3cccc(Cl)c3Cl)c(CCC#N)cc2c2c1cc([C@H]1[C@H]3C[C@H](CN(c4cccc(C#N)c4)C3)N1C(=O)C1CC1)n2[C@H]1[C@H]2CN[C@@H]1C2 (atropisomer, axis not shown; (Ra)) [Example 17, 3-((1S,5R,7R)-7-((Ra)-1-((1R,4R,5S)-2-azabicyclo[2.1.1]hexan-5-yl)-8-(2-cyanoethyl)-7-(2,3-dichlorophenyl)-6-fluoro-4-methyl-1H-pyrrolo[3,2-c]quinolin-2-yl)-6-(cyclopropanecarbonyl)-3,6-diazabicyclo[3.2.1]octan-3-yl)benzonitrile]
- Papp A→B at 120 min, 50 μM [1]: ≤ 0.5 ×10⁻⁶ cm/s
- G12V_exchange (KRAS_G12V exchange assay IC50) (KRAS G12V): †
- G12D_exchange (KRAS_G12D exchange assay IC50) (KRAS G12D): ††

SMILES: Cc1nc2c(F)c(-c3cccc(Cl)c3Cl)c(CCC#N)cc2c2c1cc([C@H]1[C@H]3C[C@H](CN(c4cccc(Cl)c4)C3)N1C(=O)C1CC1)n2[C@H]1[C@H]2CN[C@@H]1C2 (atropisomer, axis not shown; (Ra)) [Example 19, 3-((Ra)-1-((1R,4R,5S)-2-azabicyclo[2.1.1]hexan-5-yl)-2-((1S,5R,7R)-3-(3-chlorophenyl)-6-(cyclopropanecarbonyl)-3,6-diazabicyclo[3.2.1]octan-7-yl)-7-(2,3-dichlorophenyl)-6-fluoro-4-methyl-1H-pyrrolo[3,2-c]quinolin-8-yl)propanenitrile]
- Papp A→B at 120 min, 50 μM [1]: ≤ 0.5 ×10⁻⁶ cm/s
- G12V_exchange (KRAS_G12V exchange assay IC50) (KRAS G12V): †
- G12D_exchange (KRAS_G12D exchange assay IC50) (KRAS G12D): ††

SMILES: Cc1nc2c(F)c(-c3cccc(Cl)c3Cl)c(CCC#N)cc2c2c1cc([C@H]1[C@H]3C[C@H](CN(c4cccc(OC(F)(F)F)c4)C3)N1C(=O)C1CC1)n2[C@H]1[C@H]2CN[C@@H]1C2 (atropisomer, axis not shown; (Ra)) [Example 20, 3-((Ra)-1-((1R,4R,5S)-2-azabicyclo[2.1.1]hexan-5-yl)-2-((1S,5R,7R)-6-(cyclopropanecarbonyl)-3-(3-(trifluoromethoxy)phenyl)-3,6-diazabicyclo[3.2.1]octan-7-yl)-7-(2,3-dichlorophenyl)-6-fluoro-4-methyl-1H-pyrrolo[3,2-c]quinolin-8-yl)propanenitrile]
- Papp A→B at 120 min, 50 μM [1]: ≤ 0.5 ×10⁻⁶ cm/s
- G12V_exchange (KRAS_G12V exchange assay IC50) (KRAS G12V): †
- G12D_exchange (KRAS_G12D exchange assay IC50) (KRAS G12D): ††
